Results reported in PubChem BioAssay (NCI).
Where “and” joins values, the source holds several entries; their conditions need not be identical. Equal entries are not always repeated.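 Five compound concentrations were applied to cells in 96-well plates for 48 hours; endpoints were derived by simple linear interpolation of the resulting dose-response curve. Abbreviation: GI50, concentration required for 50% inhibition of growth. TGI: total growth inhibition.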

Key:
Assay in all cases: NCI tumour cell line growth inhibition, 48 h
DMS 273 small cell lung = system: DMS 273 small cell lung
HOP-18 NSCLC = system: HOP-18 NSCLC
DMS 114 small cell lung = system: DMS 114 small cell lung
M19-MEL melanoma = system: M19-MEL melanoma
XF 498 CNS = system: XF 498 CNS
DLD-1 colon = system: DLD-1 colon
MDA-N = system: MDA-N
SNB-78 CNS = system: SNB-78 CNS
RXF-631 renal = system: RXF-631 renal
SN12K1 renal = system: SN12K1 renal
P388/ADR leukemia = system: P388/ADR leukemia

SMILES | TGI (DMS 273 small cell lung) | TGI (HOP-18 NSCLC) | TGI (DMS 114 small cell lung) | TGI (M19-MEL melanoma) | TGI (XF 498 CNS) | TGI (DLD-1 colon) | TGI (MDA-N) [µM] | TGI (SNB-78 CNS) [µM] | TGI (RXF-631 renal) [µM] | further results
Oc1c(C(Nc2cccc3cccnc23)c2ccccc2)ccc2cccnc12 (stereo unspecified) | > 100 µM | 93.2 µM | 15.6 µM | > 100 µM | – | – | – | – | – | –
COc1cc(OC(=O)c2ccccc2)cc2c1C(=O)C=CC2=O | 40.5 µM | 41.5 µM | 30.2 µM | 25.9 µM | 31.4 µM | 35.5 µM | 18.8 | 41.4 | 41.5 | –
O=[N+]([O-])c1cc(C(F)(F)F)cc([N+](=O)[O-])c1CCl | 2.62 µM | 3.6 µM | 1.95 µM | 3.64 µM | – | 4.65 µM | – | 10.6 | 10.4 | –
COc1cc(C[C@H]2c3cc(OC)c(OC)cc3CCN2C)c(Oc2cc3c(cc2OC)-c2c(OC)c(OC)cc4c2[C@H](C3)N(C)CC4)cc1OC | 27.6 µM and 28.1 µM | 40.9 µM and 29.9 µM | 18 µM and 14.4 µM | 16.8 µM and 24.6 µM | 16.4 µM and 16.3 µM | 40.8 µM and 28.3 µM | 13.1 | – | 19.8 | TGI (SN12K1 renal): 15.4 µM; GI50 (XF 498 CNS): 6.8 µM; TGI (P388/ADR leukemia): 27.9 µM; GI50 (DMS 273 small cell lung): 14.6 µM; GI50 (HOP-18 NSCLC): 20.1 µM and 15.8 µM; GI50 (DMS 114 small cell lung): 4 µM; GI50 (M19-MEL melanoma): 11.9 µM
Cc1ccc(S(=O)(=O)N/N=C/c2c(O)ccc3ccccc23)cc1 | – | – | – | – | – | – | > 100 | – | – | –
CCC[CH2][Sn]1([CH2]CCC)[O]C(=O)c2cccnc2[O]1 | 11.3 µM | – | 4.05 µM | 15.3 µM | 2.92 µM | 10.7 µM | – | 7.73 | 2.73 | GI50 (XF 498 CNS): 1.38 µM; GI50 (DLD-1 colon): 3.11 µM; GI50 (DMS 273 small cell lung): 2.37 µM; GI50 (DMS 114 small cell lung): 1.95 µM; GI50 (SNB-78 CNS): 2.07 µM; GI50 (M19-MEL melanoma): 4.26 µM; GI50 (RXF-631 renal): 1.43 µM
Oc1ccccc1/C=C/c1csnn1 | > 100 µM | > 100 µM | > 100 µM | > 100 µM | > 100 µM | > 100 µM | – | > 100 | > 100 | –
OC(c1ccccc1)(c1ccccc1)c1ccncc1 | > 100 µM | > 100 µM | > 100 µM | > 100 µM | > 100 µM | > 100 µM | – | > 100 | – | –
CCOC(=O)N1CCN(C=S)CC1 | > 100 µM | > 100 µM | > 100 µM | > 100 µM | – | > 100 µM | – | > 100 | > 100 | –
N#CC(NC12CC3CC(CC(C3)C1)C2)c1ccc2c(c1)OCO2 (stereo unspecified) | – | – | – | – | – | – | > 100 | – | – | –
CP1(=O)CCCCC1 | > 100 µM | > 100 µM | > 100 µM | > 100 µM | > 100 µM | > 100 µM | – | > 100 | – | –
COc1cc2ccc(/C=C\[N+](=O)[O-])cc2cc1OC | – | – | – | – | – | – | 5.78 | – | – | –
CC(C)C1CC[C@@H](C)C[C@@]1(O)CC(N)=O (stereo partly specified) | > 100 µM | > 100 µM | > 100 µM | > 100 µM | 0.856 µM | > 100 µM | – | > 100 | > 100 | –
CN(C)CC/C(=N\Nc1ccc([N+](=O)[O-])cc1)c1ccccc1 | 22.3 µM | 20.5 µM | 18 µM | – | – | 27.2 µM | – | 20 | – | –
CCS(CC)(CC)CC1CCCC2=CCC(P(=O)(c3ccccc3)c3ccccc3)CC21 (stereo unspecified) | 26.4 µM | 40.3 µM | 24.8 µM | 36.5 µM | 17.4 µM | 28.7 µM | – | 37.1 | 31.5 | –
O=C(O)C(SC(=S)c1ccc(C(=S)SC(C(=O)O)c2ccccc2)cc1)c1ccccc1 (stereo unspecified) | > 100 µM | – | > 100 µM | – | > 100 µM | > 100 µM | – | > 100 | > 100 | –
COC1CC(OS(=O)(=O)c2ccc([N+](=O)[O-])cc2)C(OC(=O)c2ccccc2)C(C)O1 (stereo unspecified) | > 100 µM | > 100 µM | – | > 100 µM | > 100 µM | > 100 µM | – | > 100 | > 100 | –
Cc1ccc(Nc2n[nH]c(=S)s2)cc1C | – | – | – | – | – | – | > 100 | – | – | –
